Consider 17 molecules from patent US20210246115A1 (Bioimics AB, priority 2017, published 2021).

Where a name gives a salt, the structure may show the parent alone. Read-outs that look alike come from different tables or passages of the source.

For assay [1], the system named is E. coli RNase P RNA, M1 RNA. Nature of the assay: Inhibition of bacterial RNase P activity, IC50 determination (cleavage of pATSerUG by M1 RNA). It counts as biochemical. As to conditions: NI: No inhibition.
For assay [2], the system named is E. coli RNase P RNA, M1 RNA. Nature of the assay: Initial screening for inhibition of RNase P activity (normalised cleavage of pATSerUG at maximum compound concentration). Type of assay: biochemical. Conditions: normalised cleavage (cleavage with compound / without compound) at maximum compound concentration.
In assay [3] the test system is A. baumannii ATCC 17978. Kind of assay: MIC, A. baumannii ATCC 17978. It counts as cell-based. As to conditions: Acinetobacter baumannii, ATCC17978; Table XIV B. Gram-negative bacteria.
Assay [4] has as its system E. coli JW5503 (efflux defective). Kind of assay: MIC, E. coli JW5503 (efflux defective). It counts as cell-based. As to conditions: Escherichia coli, read-out: E. coli JW5503 (efflux defective) MIC.
Assay [5] deals with E. faecium ATCC 700221. Kind of assay: MIC, E. faecium ATCC 700221. It counts as cell-based. As to conditions: Enterococcus faecium, ATCC700221; Table XIV A. Gram-positive bacteria; read-out: E. faecium ATCC 700221 MIC.
For assay [6], the system named is P. aeruginosa NTUH974 (MDR). Nature of the assay: MIC, P. aeruginosa NTUH974 (MDR). Type of assay: cell-based. As to conditions: Pseudomonas aeruginosa; Table XIV B. Gram-negative bacteria; read-out: P. aeruginosa NTUH974 (MDR) MIC.
Assay [7] concerns Staphylococcus aureus (ATCC25923). Kind of assay: MIC, broth microdilution (CLSI), Staphylococcus aureus ATCC25923. As to conditions: Staphylococcus aureus, ATCC25923, read-out: S. aureus ATCC 25923 MIC. (In broth dilution the organism is exposed to a series of concentrations in liquid medium.)
For assay [8], the system named is S. aureus MRSA ATCC 33591. Kind of assay: MIC, S. aureus MRSA ATCC 33591. Type of assay: cell-based. As to conditions: Staphylococcus aureus; Table XIV A. Gram-positive bacteria; read-out: S. aureus MRSA ATCC 33591 MIC.
Assay [9] has as its system N. gonorrhoeae ATCC 700825. Nature of the assay: MIC, N. gonorrhoeae ATCC 700825. Type of assay: cell-based. Conditions: Neisseria gonorrhoeae, ATCC700825; Table XIV B. Gram-negative bacteria.
Assay [10] relates to K. pneumoniae ATCC 43816. Nature of the assay: MIC, K. pneumoniae ATCC 43816. It counts as cell-based. Conditions: Klebsiella pneumoniae, ATCC43816; Table XIV B. Gram-negative bacteria.
For assay [11], the system named is Enterococcus faecalis (ATCC29212). Nature of the assay: MIC, broth microdilution (CLSI), Enterococcus faecalis. As to conditions: ATCC29212, Table XIV A. Gram-positive bacteria, read-out: E. faecalis ATCC 29212 MIC. Type of assay: cell-based.
In assay [12] the test system is S. pneumoniae ATCC 49619. Kind of assay: MIC, S. pneumoniae ATCC 49619. Conditions: Streptococcus pneumoniae, ATCC49619; Table XIV A. Gram-positive bacteria. It counts as cell-based.
Assay [13] relates to M. phlei ATCC 11758. Nature of the assay: MIC, M. phlei ATCC 11758. As to conditions: Mycolicibacterium phlei, ATCC11758; Table XIV A. Gram-positive bacteria. It counts as cell-based.
Assay [14] concerns Pseudomonas aeruginosa (ATCC27853). Nature of the assay: MIC, broth microdilution (CLSI), Pseudomonas aeruginosa. Type of assay: cell-based. Conditions: ATCC27853, Table XIV B. Gram-negative bacteria, read-out: P. aeruginosa ATCC 27853 MIC.
The subject of assay [15] is Staphylococcus aureus subsp. aureus (ATCC29213). Nature of the assay: MIC, broth microdilution (CLSI), Staphylococcus aureus ATCC29213. Type of assay: cell-based. As to conditions: Staphylococcus aureus, read-out: S. aureus ATCC 29213 MIC.
The test system of assay [16] is M. fortuitum ATCC 110. Nature of the assay: MIC, M. fortuitum ATCC 110. It counts as cell-based. Conditions: Mycolicibacterium fortuitum, ATCC110; Table XIV A. Gram-positive bacteria.
Assay [17] concerns Escherichia coli (ATCC25922). Kind of assay: MIC, broth microdilution (CLSI), Escherichia coli. Conditions: Escherichia coli.
Procedure: Initial minimal inhibitory concentration (MIC) tests were made on two bacterial strains: • Escherichia coli (ATCC25922) • Staphylococcus aureus (ATCC25923).
MIC values were determined using the standard broth microdilution procedure based on the guidelines by the Clinical and Laboratory Standards Institute (CLSI). Briefly, the compounds were dissolved in DMSO to 10 mM. They were diluted in cation-adjusted Mueller-Hinton broth (CAMHB) to four times the highest concentration tested. A serial two-fold dilution in CAMHB was done in microdilution plates. The inoculum of bacterial strain to be tested was prepared by making a suspension of colonies from an 18 to 24 hours old plate in CAMHB. The inoculum was diluted so that, after inoculation, each well contained approximately 5×10^5 CFU/mL. To a volume of 50 μl compound in CA 3 an equal volume of inoculum was added. The tray was sealed in a plastic bag and incubated at 35° C. for 16 to 20 hours. To aid in the detection of growth the dye resazurin was added to a final concentration 0.001% and incubated at room temperature for 1 h. Reduction of resazurin, and therefore bacterial growth, was seen as a change from blue to pink.
Assay [18] relates to H. influenzae ATCC 49247. Kind of assay: MIC, H. influenzae ATCC 49247. Type of assay: cell-based. Conditions: Haemophilus influenzae, ATCC49247; Table XIV B. Gram-negative bacteria.
Assay [19] concerns S. aureus USA300 MRSA BAA-1717. Nature of the assay: MIC, S. aureus USA300 MRSA BAA-1717. Type of assay: cell-based. Conditions: Staphylococcus aureus; Table XIV A. Gram-positive bacteria; read-out: S. aureus USA300 MRSA BAA-1717 MIC.
Where [20] appears, read: ATCC29213, Table XIV A. Gram-positive bacteria.
[21] abbreviates: ATCC25922, read-out: E. coli ATCC 25922 MIC, Table XIII.
[22] abbreviates: ATCC25922, read-out: E. coli ATCC 25922 MIC, Table XIV B. Gram-negative bacteria.

For `Cc1cccc(C(CC(=O)NCCC2CCNCC2)c2cn(Cc3ccccc3)c3ccccc23)c1.Cl` (centres unmarked) [Compound 86, 3-(1-benzyl-1H-indol-3-yl)-N-(2-(piperidin-4-yl)ethyl)-3-(m-tolyl)propanamide hydrochloride salt], the half-inhibitory concentration (IC50) in [1] (hydrochloride salt) was 242 µM. Moreover, the “Initial screening of RNase P Inhibition” value in assay [2] (hydrochloride salt) was 0.78.

In assay [1], `Cc1cccc(C(CC(=O)NCCC2CCNCC2)c2cn(Cc3ccccc3)c3cccnc23)c1.Cl` (centres unmarked) [Compound 85, 3-(1-benzyl-1H-pyrrolo[3,2-b]pyridin-3-yl)-N-(2-(piperidin-4-yl)ethyl)-3-(m-tolyl)propanamide hydrochloride salt] yielded an IC50 of 806 µM. The “Initial screening of RNase P Inhibition” value in assay [2] was determined as 0.20.

As to `Cl.Fc1ccc(CN(CCc2c[nH]c3ccccc23)Cc2ncc[nH]2)cc1` [Compound 10, N-((1H-imidazol-2-yl)methyl)-N-(4-fluorobenzyl)-2-(1H-indol-3-yl)ethan-1-amine hydrochloride salt], in assay [2], the “Initial screening of RNase P Inhibition” value is listed as 0.95.

For the molecule `Brc1cccc(CNCCc2c[nH]c3ccccc23)c1.Cl` [Compound 13, N-(3-bromobenzyl)-2-(1H-indol-3-yl)ethan-1-amine hydrochloride salt], the “Initial screening of RNase P Inhibition” value in assay [2] is 0.97.

With `Cc1cccc(-c2ccc3c(c2)c(CCN[C@H]2CC[C@H](N)CC2)cn3CC2CCCCC2)c1` [Compound 225, (1R,4R)-N1-(2-(1-(cyclohexylmethyl)-5-(m-tolyl)-1H-indol-3-yl)ethyl)cyclohexane-1,4-diamine hydrochloride salt], the MIC came out at 2 µg/mL in assay [3]; 2 µg/mL in [4]; 1 µg/mL in [5]; 16 µg/mL in assay [6]; 2 µg/mL in assay [7]; 2 µg/mL in [8]. Moreover, the MIC in assay [9] came out at 2 µg/mL; in [10], 2 µg/mL; in [11] it was 2 µg/mL; in assay [12], 8 µg/mL; in assay [13] it was 1 µg/mL; in [14], 8 µg/mL. Also, the MIC in assay [15] (ATCC29213, Table XIII) was determined as 2 µg/mL; in [15] (setting [20]), 2 µg/mL; in assay [16], 1 µg/mL; in assay [17] (setting [21]) it was 2 µg/mL; in assay [17] (setting [22]) it was 2 µg/mL; in assay [18], 4 µg/mL. In [19], the MIC is 2 µg/mL. In addition, in [1], half-maximal inhibition (IC50) was put at 11.8 µM.

For `COc1ccccc1-c1ccc2c(c1)c(CCCN[C@H]1CC[C@H](N)CC1)cn2CC1CCCCC1` [Compound 237, (1S,4S)-N1-(3-(1-(cyclohexylmethyl)-5-(2-methoxyphenyl)-1H-indol-3-yl)propyl)cyclohexane-1,4-diamine hydrochloride salt], the MIC in [3] was 8 µg/mL; in assay [4] it was 4 µg/mL; in assay [5] it was 2 µg/mL; in assay [6], 16 µg/mL; in [7] it was 2 µg/mL; in [8] it was 4 µg/mL. Besides, the MIC was found to be 2 µg/mL in [9]; 4 µg/mL in assay [10]; 2 µg/mL in assay [11]; 8 µg/mL in [12]; 2 µg/mL in assay [13]; 16 µg/mL in assay [14]. In addition, the MIC in [15] (ATCC29213, Table XIII) is 4 µg/mL; in assay [15] (setting [20]) it was 2 µg/mL; in assay [16] it was 2 µg/mL; in assay [17] (setting [21]), 4 µg/mL; in [17] (setting [22]), 4 µg/mL; in assay [18], 8 µg/mL. Moreover, the MIC in assay [19] was determined as 4 µg/mL. The same molecule gave an IC50 in assay [1] of 9.8 µM.

For the molecule `Cl.c1cc(CNCCc2c[nH]c3ccccc23)nc(N2CCCCC2)c1` [Compound 17, 2-(1H-indol-3-yl)-N-((6-(piperidin-1-yl)pyridin-2-yl)methyl)ethan-1-amine hydrochloride salt], in assay [2], the “Initial screening of RNase P Inhibition” value was found to be 0.94.

As to `COc1ccc(CNCCc2c[nH]c3ccccc23)cc1.Cl` [Compound 11, 2-(1H-indol-3-yl)-N-(4-methoxybenzyl)ethan-1-amine hydrochloride salt], the “Initial screening of RNase P Inhibition” value in assay [2] came to 0.72.

For the molecule `Cc1ccc(CN(CCc2c[nH]c3ccccc23)C(=O)CNCc2ccc(F)cc2)cc1.Cl` [Compound 15, N-(2-(1H-indol-3-yl)ethyl)-2-((4-fluorobenzyl)amino)-N-(4-methylbenzyl)acetamide hydrochloride salt], the “Initial screening of RNase P Inhibition” value in [2] turned out to be 1.10.

Turning to `Cl.c1ccc2c(CCNCc3cncs3)c[nH]c2c1` [Compound 16, 2-(1H-indol-3-yl)-N-(thiazol-5-ylmethyl) ethan-1-amine hydrochloride salt], the “Initial screening of RNase P Inhibition” value in [2] was 0.88.

As for `c1ccc2c(CCNCC3CCNCC3)c[nH]c2c1` [Compound 18, 2-(1H-indol-3-yl)-N-(piperidin-4-ylmethyl)ethan-1-amine hydrochloride salt], the “Initial screening of RNase P Inhibition” value in assay [2] is 1.05.

In the case of `Cc1cccc(C(CC(=O)NCCC2CCNCC2)c2cn(Cc3ccccc3)c3ccccc23)c1.Cl` (centres unmarked) [Compound 87, 3-(1-benzyl-1H-indol-3-yl)-N-(2-(piperidin-4-yl)ethyl)-3-(m-tolyl) propanamide hydrochloride salt], the 50% inhibitory concentration (IC50) in [1] (hydrochloride salt) is 154 µM. For the same molecule, the “Initial screening of RNase P Inhibition” value in assay [2] (hydrochloride salt) came out at 0.30.

`Cc1cccc(C(CCNC2CCNCC2)c2cn(CC3CCCCC3)c3ccccc23)c1.Cl` (centres unmarked) [Compound 122, N-(3-(1-(cyclohexylmethyl)-1H-indol-3-yl)-3-(m-tolyl)propyl)piperidin-4-amine hydrochloride salt]: the MIC in assay [3] worked out at 8 µg/mL; in assay [4] it was 4 µg/mL; in [5], 2 µg/mL; in [6] it was 16 µg/mL; in [7] it was 2 µg/mL; in assay [8] it was 4 µg/mL. The MIC in [9] was 2 µg/mL; in assay [10], 4 µg/mL; in [11], 4 µg/mL; in assay [12] it was 8 µg/mL; in assay [13], 2 µg/mL; in assay [14] it was 16 µg/mL. Moreover, the MIC in [15] (ATCC29213, Table XIII) came out at 8 µg/mL; in assay [15] (setting [20]), 4 µg/mL; in assay [16] it was 2 µg/mL; in [17] (setting [21]) it was 4 µg/mL; in [17] (setting [22]), 4 µg/mL; in [18] it was 4 µg/mL. In assay [1], this molecule returned an IC50 of 4 µM.

For `Cl.c1ccc2c(CCNCc3c[nH]cn3)c[nH]c2c1` [Compound 9, N-((1H-imidazol-4-yl)methyl)-2-(1H-indol-3-yl)ethan-1-amine hydrochloride salt], the “Initial screening of RNase P Inhibition” value in assay [2] amounted to 0.91.

In turn, `CCn1cc(C(CC(=O)NCCC2CCNCC2)c2cccc(C)c2)c2ccccc21.Cl` (centres unmarked) [Compound 84, 3-(1-ethyl-1H-indol-3-yl)-N-(2-(piperidin-4-yl)ethyl)-3-(m-tolyl)propanamide hydrochloride salt] gave an IC50 in [1] of 823 µM. Moreover, the “Initial screening of RNase P Inhibition” value in [2] stood at 0.32.

As for `Brc1cccc(CNCCc2c[nH]c3ccccc23)n1.Cl` [Compound 12, N-((6-bromopyridin-2-yl)methyl)-2-(1H-indol-3-yl)ethan-1-amine hydrochloride salt], the “Initial screening of RNase P Inhibition” value in assay [2] worked out at 0.84.

On to `Cl.Clc1ccc(CNCCc2c[nH]c3ccccc23)c(Cl)n1` [Compound 8, N-((2,6-dichloropyridin-3-yl)methyl)-2-(1H-indol-3-yl)ethan-1-amine hydrochloride salt], for which the “Initial screening of RNase P Inhibition” value in assay [2] was determined as 0.96.

For orientation: IC50 means the concentration that gives 50% inhibition.
